System: differential cell counts (macrophages, monocytes, eosinophils, lymphocytes, neutrophils, and erythrocytes)
Experiment: Thioglycollate/Zymosan-induced peritonitis model: differential cell counts of peritoneal lavage cells
Format: in vivo, mice
Design: RBC, MEAN / RBC, MEDIAN / WBC, MEAN / WBC, MEDIAN: unit not given here
Protocol: Thioglycollate/Zymosan—Induced Peritonitis Model: Wild-type mice were administered either 500 mg/kg body weight of disodium disuccinate astaxanthin (ddAst/Cardax™) in an oil emulsion vehicle, or normal saline (NS) as a negative control, by oral gavage at 24 hours intervals beginning 7 days prior to the induction of peritonitis. Peritonitis was induced experimentally as follows: mice were injected intraperitoneally with 1 ml of 4% by weight thioglycollate (Tg) broth, to induce the recruitment of proinflammatory cells to the peritoneum. Either 16 hours or 72 hours after recruitment, approximately half of the mice were injected intraperitoneally with 250 mg/kg body weight of zymosan (Z) for a further 4 hours. The mice not receiving zymosan underwent no further treatment. Peritoneal lavage was performed in control animals or animals treated with (ddAst) 16 hours post Tg injection, or 20 h following the combination of both Tg injection (16 hours) followed by Z injection (4 hours), as indicated (Tg/Z). Peritoneal lavages were performed with phosphate-buffered saline containing antioxidant (0.1 mM butylated hydroxytoluene (BHT)) and 2 mM of the metal chelator diethylenetriamine pentaacetic acid (DTPA) according to established practices in the art. The lavage suspensions were transferred to screw-capped tubes under an argon atmosphere, and immediately centrifuged at 1000 rpm in a table top microcentrifuge for 10 min at 4° C. to remove whole cells and debris. All analyses of lipid peroxidation products was performed on cell-free lavage supernatants. Cell pellets were resuspended in phosphate-buffered saline containing 0.1 mM BHT and 0.1 mM DTPA, and differential cell counts (macrophages, monocytes, eosinophils, lymphocytes, neutrophils, and erythrocytes) were performed on cytospun preparations of isolated cells according to established procedures in the art.

SMILES: CC1=C(/C=C/C(C)=C/C=C/C(C)=C/C=C/C=C(C)/C=C/C=C(C)/C=C/C2=C(C)C(=O)C(OC(=O)CCC(=O)O)CC2(C)C)C(C)(C)CC(OC(=O)CCC(=O)O)C1=O (stereo not shown) [Cardax, disodium disuccinate astaxanthin]
- ALV MAC %, MEAN (16 Hour Thioglycollate): 3.000%
- EOSIN %, MEAN (16 Hour Thioglycollate): 6.000%
- LYMPHS %, MEAN (16 Hour Thioglycollate): 23.000%
- MONOS %, MEAN (16 Hour Thioglycollate): 39.667%
- NEUTRO %, MEAN (16 Hour Thioglycollate): 25.333%
- OTHER %, MEAN (16 Hour Thioglycollate): 2.667%
- RBC, MEAN (16 Hour Thioglycollate): 449.33
- REACTIVE %, MEAN (16 Hour Thioglycollate): 0.333%
- RES EP %, MEAN (16 Hour Thioglycollate): 0.000%
- WBC, MEAN (16 Hour Thioglycollate): 528.67
- ALV MAC %, MEDIAN (16 Hour Thioglycollate): 3.000%
- EOSIN %, MEDIAN (16 Hour Thioglycollate): 4.000%
- LYMPHS %, MEDIAN (16 Hour Thioglycollate): 19.000%
- MONOS %, MEDIAN (16 Hour Thioglycollate): 35.000%
- NEUTRO %, MEDIAN (16 Hour Thioglycollate): 21.000%
- OTHER %, MEDIAN (16 Hour Thioglycollate): 2.000%
- RBC, MEDIAN (16 Hour Thioglycollate): 350.00
- REACTIVE %, MEDIAN (16 Hour Thioglycollate): 0.000%
- RES EP %, MEDIAN (16 Hour Thioglycollate): 0.000%
- WBC, MEDIAN (16 Hour Thioglycollate): 475.00
- ALV MAC %, MEAN (72 Hour Thioglycollate): 15.667%
- EOSIN %, MEAN (72 Hour Thioglycollate): 1.667%
- LYMPHS %, MEAN (72 Hour Thioglycollate): 53.000%
- MONOS %, MEAN (72 Hour Thioglycollate): 27.000%
- NEUTRO %, MEAN (72 Hour Thioglycollate): 0.000%
- OTHER %, MEAN (72 Hour Thioglycollate): 2.333%
- RBC, MEAN (72 Hour Thioglycollate): 90.333
- REACTIVE %, MEAN (72 Hour Thioglycollate): 0.333%
- RES EP %, MEAN (72 Hour Thioglycollate): 0.000%
- WBC, MEAN (72 Hour Thioglycollate): 435.33
- ALV MAC %, MEDIAN (72 Hour Thioglycollate): 15.000%
- EOSIN %, MEDIAN (72 Hour Thioglycollate): 1.000%
- LYMPHS %, MEDIAN (72 Hour Thioglycollate): 55.000%
- MONOS %, MEDIAN (72 Hour Thioglycollate): 32.000%
- NEUTRO %, MEDIAN (72 Hour Thioglycollate): 0.000%
- OTHER %, MEDIAN (72 Hour Thioglycollate): 2.000%
- RBC, MEDIAN (72 Hour Thioglycollate): 69.000
- REACTIVE %, MEDIAN (72 Hour Thioglycollate): 0.000%
- RES EP %, MEDIAN (72 Hour Thioglycollate): 0.000%
- WBC, MEDIAN (72 Hour Thioglycollate): 448.00

From patent US7691901B2, “Carotenoid analogs or derivatives for the inhibition and amelioration of inflammation” (Cardax Pharmaceuticals Inc., priority 2004, dated 2010)
